From PMC8596765 (Clinical Pharmacology in Drug Development, 2021)
“Also recorded” adds a separate entry of the source. Read-outs that look alike come from different tables or passages of the source.

Key:
HMG‐CoA reductase = conditions: cited from earlier work
Safety monitoring = type: in vivo, human (healthy subjects); conditions: for Tolerability: doses administered alone or in combination, healthy subjects
[1] = oral contraceptives, CYP3A substrates; cited from earlier work
CYP3A = conditions: upadacitinib 30 mg once daily, healthy subjects; cited from earlier work
[2] = type: in vivo, human (healthy subjects)
[3] = cited from earlier work
BCRP [4] = target: T1, BCRP (Homo sapiens, UniProt Q9UNQ0); test: In vivo transporter inhibition by upadacitinib inferred from statin exposures; parameters: species or system human (healthy subjects); conditions: upadacitinib 30 mg once daily; no increase in rosuvastatin or atorvastatin exposures
T1 sequence (Q9UNQ0 1-655): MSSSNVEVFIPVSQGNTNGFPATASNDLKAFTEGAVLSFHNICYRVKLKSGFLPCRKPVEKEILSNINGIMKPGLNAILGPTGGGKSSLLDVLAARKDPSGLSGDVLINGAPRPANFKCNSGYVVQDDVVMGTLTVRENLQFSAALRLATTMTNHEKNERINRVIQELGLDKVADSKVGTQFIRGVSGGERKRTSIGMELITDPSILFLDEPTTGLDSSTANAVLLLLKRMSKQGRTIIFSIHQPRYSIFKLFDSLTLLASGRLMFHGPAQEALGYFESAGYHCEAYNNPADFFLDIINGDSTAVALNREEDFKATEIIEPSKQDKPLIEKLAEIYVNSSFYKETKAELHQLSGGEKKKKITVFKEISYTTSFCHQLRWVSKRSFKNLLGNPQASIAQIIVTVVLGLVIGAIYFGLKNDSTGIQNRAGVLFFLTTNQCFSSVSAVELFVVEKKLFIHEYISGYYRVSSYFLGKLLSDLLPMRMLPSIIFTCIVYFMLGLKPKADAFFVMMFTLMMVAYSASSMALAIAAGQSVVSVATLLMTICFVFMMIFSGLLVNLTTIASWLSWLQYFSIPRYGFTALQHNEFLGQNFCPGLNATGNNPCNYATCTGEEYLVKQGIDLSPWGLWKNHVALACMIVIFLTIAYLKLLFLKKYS

CYP2D6 = conditions: following upadacitinib dosing in the cocktail drug interaction study; cited from earlier work
[5] = type: in vivo, human (healthy subjects); conditions: for CL/F / Cmax: N = 24, mean ± SD
CYP2C9 = conditions: following upadacitinib dosing in the cocktail drug interaction study; cited from earlier work
[6] = system: organic anion transporting polypeptide (OATP) 1B1; conditions: in vitro assessments, at clinically relevant concentrations; cited from earlier work
CYP1A2 = conditions: following upadacitinib dosing in the cocktail drug interaction study; cited from earlier work
[7] = type: in vivo, human (healthy subjects); conditions: for CL/F: N = 12, mean ± SD
BCRP [8] = conditions: in vitro assessments, at clinically relevant concentrations; cited from earlier work
OATP1B = test: In vivo transporter inhibition by upadacitinib inferred from statin exposures; parameters: species or system human (healthy subjects); conditions: upadacitinib 30 mg once daily; no increase in rosuvastatin or atorvastatin exposures
P‐glycoprotein = conditions: in vitro assessments; cited from earlier work
[9] = system: breast cancer resistance protein (BCRP); conditions: in vitro assessments; cited from earlier work
[10] = cited from earlier work; remark: listed apart in the source
CYP2C19 = conditions: following upadacitinib dosing in the cocktail drug interaction study; cited from earlier work
[11] = atorvastatin 10 mg + upadacitinib 30 mg once daily, period 2 day 7, N = 24
[12] = atorvastatin 10 mg alone, period 1 day 1, N = 24
[13] = atorvastatin 10 mg alone, period 1 day 1, N = 24, mean ± SD
[14] = rosuvastatin 5 mg, upadacitinib 30 mg once daily
[15] = part 2, period 2 day 6, upadacitinib 30 mg once daily alone
[16] = part 2, period 2 day 7, upadacitinib 30 mg once daily + atorvastatin 10 mg single dose
[17] = upadacitinib 30 mg once daily at steady state

For CC(C)c1nc(NS(C)(=O)=O)nc(-c2ccc(F)cc2)c1/C=C/[C@@H](O)C[C@@H](O)CC(=O)O [N‐desmethyl rosuvastatin], the “Inhibitory activity of HMG‐CoA reductase compared to rosuvastatin” value (HMG‐CoA reductase) is listed as “minimal inhibitory activity”.
For CC(C)c1c(C(=O)Nc2ccccc2)c(-c2ccccc2)c(-c2ccc(F)cc2)n1CC[C@@H](O)C[C@@H](O)CC(=O)O [atorvastatin], the Tolerability (Safety monitoring) was “generally well tolerated”.
In the case of C#C[C@]1(O)CC[C@H]2[C@@H]3CCc4cc(O)ccc4[C@H]3CC[C@@]21C [ethinylestradiol], the “Effect of upadacitinib on plasma exposures” value [1] is listed as “lack of effect; also recorded: no effect”.
For C#C[C@]1(O)CC[C@H]2[C@@H]3CCC4=CC(=O)CC[C@@H]4[C@H]3CC[C@@]21CC [levonorgestrel], the “Effect of upadacitinib on plasma exposures” value [1] is given as “lack of effect; also recorded: no effect”.
For Cc1ncc2n1-c1ccc(Cl)cc1C(c1ccccc1F)=NC2 [midazolam], the “Decrease in AUC when administered with upadacitinib relative to alone” value (CYP3A) is listed as 26% and the “Decrease in Cmax when administered with upadacitinib relative to alone” value (CYP3A) is listed as 26%.
With CC(C)c1c(C(=O)Nc2ccccc2O)c(-c2ccccc2)c(-c2ccc(F)cc2)n1CC[C@@H](O)C[C@@H](O)CC(=O)O [ortho‐hydroxyatorvastatin] the “t1/2 (arithmetic mean ± standard deviation)” value [11] was 10.7 ± 2.76 h, the “t1/2 (harmonic mean ± pseudo-standard deviation)” value [11] was 10.0 ± 2.60 h and the “t1/2 (arithmetic mean ± standard deviation)” value [12] was 12.9 ± 5.76 h. For the same compound, the “t1/2 (harmonic mean ± pseudo-standard deviation)” value [12] was 11.1 ± 3.92 h, the “Ortho‐hydroxyatorvastatin to atorvastatin AUCinf ratio” value [13] was 1.39 ± 0.499 and the “Ortho‐hydroxyatorvastatin to atorvastatin AUCt ratio” value [13] was 1.33 ± 0.492. The tmax (atorvastatin 10 mg alone, period 1 day 1, N = 24, median (minimum-maximum)) was 4.0 (2.0‐8.0) h, the Cmax (atorvastatin 10 mg single dose + upadacitinib 30 mg once daily, period 2 day 7, N = 24, mean ± SD) was 1.54 ± 0.610 ng/mL and the Cmax (atorvastatin 10 mg single oral dose alone, period 1 day 1, N = 24, mean ± SD) was 1.58 ± 0.716 ng/mL.
For CC(C)c1nc(N(C)S(C)(=O)=O)nc(-c2ccc(F)cc2)c1/C=C/[C@@H](O)C[C@@H](O)CC(=O)O [rosuvastatin], the Tolerability (Safety monitoring) was “generally well tolerated”, the AUC(0-inf) ([2]; human, plasma, oral, 5 mg) was 22.8 ± 6.69 ng·h/mL and the AUC(0-t) ([2]; human, plasma, oral, 5 mg) was 17.5 ± 6.53 ng·h/mL. The half-life ([2]; human, plasma, oral, 5 mg, t1/2 (arithmetic mean ± standard deviation), rosuvastatin 5 mg alone, period 1 day 1, N = 12) was 27.5 h, the Cmax ([2]; human, plasma, po, 5 mg) was 1.91 ± 0.699 ng/mL and the “Cmax central value ratio (90%CI)” value ([2]; rosuvastatin 5 mg with upadacitinib 30 mg once daily versus rosuvastatin alone) was 0.77. The “AUCinf lower when administered with upadacitinib relative to alone” value [2, 14] was 33%, the “Cmax lower when administered with upadacitinib relative to alone” value [2, 14] was 23% and the “Intrasubject variability in plasma exposures” value [3] was “≈ 25%”.
For CC[C@@H]1CN(C(=O)NCC(F)(F)F)C[C@@H]1c1cnc2cnc3[nH]ccc3n12 [upadacitinib], the Tolerability (Safety monitoring) was “generally well tolerated”, the “Patients reporting constipation (grade 1)” value (Safety monitoring; during treatment with rosuvastatin and upadacitinib, N = 12) was 1 patient and the New safety findings (Safety monitoring; upadacitinib alone or with the statins) was “no new safety findings”. For the same compound, the “Inhibition of BCRP in vivo” value (BCRP [4]) was “lack of inhibition”, the “Effect on CYP2D6 activity” value (CYP2D6) was “No relevant effects” and the AUC ([5]; human, plasma, oral, 30 mg) was 547 ± 112 ng·h/mL. The concentration at 24 h ([5]; human, plasma, oral, 30 mg) was 4.3 ± 1.74 ng/mL, the CL/F [5, 15] was 57.2 ± 12.3 L/h and the Cmax [5, 15] was 76.5 ± 16.1 ng/mL. For the same compound, the CL/F [5, 16] was 58.4 ± 11.7 L/h, the Cmax [5, 16] was 73.2 ± 17.1 ng/mL and the “Effect of single 10‐mg dose of atorvastatin on upadacitinib Cmax or AUC” value [5, 17] was “no relevant effect”. For the same compound, the “Effect on CYP2C9 activity” value (CYP2C9) was “No relevant effects”, the “Inhibition of OATP1B1” value [6] was “not expected to inhibit” and the “Effect of upadacitinib on the pharmacokinetics of rosuvastatin” value ([2]; upadacitinib 30 mg once daily, rosuvastatin 5 mg) was “no clinically relevant effect”. For the same compound, the “Effect on CYP1A2 activity” value (CYP1A2) was “No relevant effects”, the AUC ([7]; human, plasma, oral, 30 mg) was 585 ± 153 ng·h/mL and the Cmax ([7]; human, plasma, oral, 30 mg) was 73 ± 23.6 ng/mL. The concentration at 24 h ([7]; human, plasma, oral, 30 mg) was 5.17 ± 1.56 ng/mL, the CL/F ([7]; part 1, period 2 day 6, upadacitinib 30 mg once daily alone) was 54.6 ± 14.4 L/h and the CL/F ([7]; part 1, period 2 day 7, upadacitinib 30 mg once daily + rosuvastatin 5 mg single dose) was 55.9 ± 14.7 L/h. For the same compound, the “Effect of single 5‐mg dose of rosuvastatin on upadacitinib Cmax or AUC” value [7, 17] was “no relevant effect”, the “Inhibition of BCRP” value (BCRP [8]) was “not expected to inhibit” and the “Inhibition of OATP1B in vivo” value (OATP1B) was “lack of inhibition”. The “Substrate for P‐glycoprotein” value (P‐glycoprotein) was “is a substrate”, the “Substrate for BCRP” value [9] was “is a substrate” and the “Time to steady state” value ([10]; once‐daily dosing of the extended‐release formulation) was ≤ 4 days. The Accumulation in plasma ([10]; repeated once‐daily dosing of the extended‐release formulation) was “no significant accumulation”, the “Effect on CYP2C19 activity” value (CYP2C19) was “No relevant effects” and the “Effect of upadacitinib on the pharmacokinetics of atorvastatin” value (upadacitinib 30 mg once daily, atorvastatin 10 mg) was “no clinically relevant effect”.
